Entries after “also recorded” stand apart in the source; their conditions may differ.
Legend:
hESCs (EB formation) = assay: Effect on the formation of EBs from hESCs; assay type: cell-based, human; conditions: 10 pg/ml and above
Method: Human Embryonic Stem Cells (hESCs) cultured on feeder cells of mouse or human origin, or cultured in feeder free conditions were exposed to several different dilutions of the drug for 6 days and subjected to Embryoid Body (EB) formation on non adherent plates, in presence of the drug for another 4 days. The control set was free from any extraneous addition of drugs. The formation of normal EBs in the control was evaluated by testing the expression of all the germ lineage, pluripotency and epigenomic markers as given in table Nos. 1-7 by RT-PCR, Flow Cytometry and Immunofluorescence. Alteration in the expression profiles of these genes in the treated EBs indicated a detrimental effect on embryonic development. A failure to form nicely cavitating EBs, as observed under the microscope, or a delay in the formation of the EBs as compared to the control indicated a possible embryo toxic effect of the drug.
The effect of molecules/compounds was screened. The compound, such as Rho Kinases inhibitor Y27632, 5-Azacytidine, and gram negative bacterial endotoxin lipopolysaccharide (LPS) on the formation of EBs from hESCs were screened for their toxic activity. LPS is known to be involved in genital tract infection related pathogenesis and pregnancy losses.

EBs = assay: Effect on the germ lineages: RT-PCR of pluripotency and lineage markers in four day old EBs; assay type: cell-based, human; conditions: 12 pg/ml for 2 to 4 days
Method: Day 4 to 10 old EBs were maintained for 2 to 10 days in presence or absence of various (atleast 8 different) dilutions of the drug supplemented to the standard EB culture media. At the end of the incubation period the EBs were collected and the RNA is isolated from both the control and treated groups. The RNA was used for RT-PCR analysis of a set of developmentally important genes, pluripotency markers like (Nanog, Oct4, Sox2, and HMGB 1), lineage markers for ectoderm, endoderm, mesoderm and trophectoderm listed in table 1, 2, 3, 4, and also for a set of epigenetic signature genes (table nos. 6-7) identified by applicant. Alteration in the expression patterns of these genes in presence or absence of the compound in these EBs indicates their embryotoxic effect and potential to perturb the formation of specific or multiple lineages.
Four day old EBs were exposed to gram negative bacterial endotoxins/LPS at a concentration of 12 pg/ml for 2 to 4 days. The EBs were collected and analysed for pluripotency markers like Oct4, Sox2, HMGB1, and lineage markers like Nestin, PIII-tubulin, GATA4, BMP2, Brachury, Hand1 and BMP4 were studied, by RT-PCR. […] HMGB 1 expression was not found in these normal EBs. […] However, the mesoderm markers BMP2, Hand1, BMP4 and Brachury were silenced in the endotoxin treated EBs. […] This also explains many birth defects, which occurs as a result of gram negative bacterial infections. The expression of the LPS inducible cytokine and pluripotency associated gene HMGB1 in the EBs upon LPS exposure indicate its probable role in the formation of poorly formed embryos during such infections.

[1] = system: EBs derived from hESC line HUES9; assay: Immunofluorescence localization of HMGB1 and Brachury in EBs; assay type: cell-based, human; conditions: for Brachury protein expression (immunofluorescence): day 4.5, normal EBs positive
Description: Exposure of EBs to LPS: EBs at day-2.5 were exposed to 12.5 pg/ml of Endotoxin/lipopolysaccharide (LPS) (Sigma) for 48 hrs supplemented in culture medium. […] Post exposure, the control and endotoxin treated EBs were divided in two groups. One group was lysed in TRIZOL for RNA isolation and the other group was fixed in 4% paraformaldehyde for immunofluorescence. The expression profile of the ectoderm, endoderm, mesoderm and trophectoderm lineage markers like PHI-tubulin, GATA4, BMP2, Brachury and β-hCG etc. were studied by RT-PCR and Immunofluorescence. The expression of the LPS-inducible and pluripotency related DNA binding protein HMGB1 was also studied in both the control and treated EBs.
Immunofluorescence and Cell counting: HESCs were grown on coverslips coated with MEFs and then fixed with 4% paraformaldehyde and 5% sucrose (Sigma) followed by permeabilization in 0.2% Triton X100 (Sigma). The slides were then incubated with primary antibodies 1:500 dilution of SSEA4 (Chemicon, Calif., USA), 5 ug/ml Nanog (Santa Cruz Biotechnology, CA, USA), 10 μg/ml Brachury (R&D Systems Inc. Minneapolis, USA), and 1.5 μg/ml HMGB1 (Sigma) overnight at 4° C. After washing thrice with PBS, fluorescein isothiocyanate/Texas red-labeled Secondary antibodies against the primary goat/rabbit/mouse were added as 1:500 dilutions and incubated for 2 hours. DAPI (Sigma) was used for nuclear staining and then washed with PBS. The negative controls were done without primary antibodies. Slides were mounted with DABCC (Sigma) and images were acquired using Nikon Eclipse 90i microscope (Nikon Corporation, Japan) and Image-Pro Express software (Media Cybernetics, Inc, Silver Spring, Md.). The results were then compared with the control cells (non-LPS treated EBs). To count the number of cells per EB, the number of DAPI stained nuclei were counted in 10 each of the control and LPS treated EBs.

[2] = system: EBs derived from hESC line HUES9; assay: Morphology of EBs under the microscope; assay type: cell-based, human; conditions: 12.5 pg/ml for 48 hrs, day 4.5
Description: Exposure of EBs to LPS: EBs at day-2.5 were exposed to 12.5 pg/ml of Endotoxin/lipopolysaccharide (LPS) (Sigma) for 48 hrs supplemented in culture medium. The normal and the endotoxin treated EBs were harvested on day 4.5. Post exposure, the control and endotoxin treated EBs were divided in two groups. One group was lysed in TRIZOL for RNA isolation and the other group was fixed in 4% paraformaldehyde for immunofluorescence. The expression profile of the ectoderm, endoderm, mesoderm and trophectoderm lineage markers like PHI-tubulin, GATA4, BMP2, Brachury and β-hCG etc. were studied by RT-PCR and Immunofluorescence. The expression of the LPS-inducible and pluripotency related DNA binding protein HMGB1 was also studied in both the control and treated EBs.
The HUES9 cells were harvested on day 5 and used for induction of EBs. The control EBs were collected on day 4.5 of culture (FIG. 4b). The LPS treated EBs were also collected on day 4.5 and were compared with the normal for morphological changes under the microscope (FIG. 4c). […] The normal and LPS treated EBs were screened for pluripotency and the germ lineage markers. […] HMGB1 mRNA expression was not found in the normal EBs (FIG. 5). […] Immunofluorescence localization of HMGB1 and the mesoderm marker Brachury was done to check the protein expressions. […]

[3] = system: hematopoietic precursor cells; conditions: report [21]; cited from earlier work

In the case of lipopolysaccharide [LPS], the “EB formation from hESCs” value (hESCs (EB formation)) is reported as “complete inhibition of EB formation”, the “expression of Nestin, βIII-tubulin and GATA4 (RT-PCR)” value (EBs) is reported as “positive expression” and the “expression of mesoderm markers BMP2, Hand1, BMP4 and Brachury (RT-PCR)” value (EBs) is reported as “silenced”. The “expression of HMGB1 (RT-PCR)” value (EBs; not found in normal EBs) was “positive expression”, the “Brachury protein expression (immunofluorescence)” value ([1]; 12.5 pg/ml for 48 hrs) was “no signals” and the “Brachury protein expression (immunofluorescence)” value ([1]; 12.5 pg/ml for 48 hrs, listed as lipopolysaccharides) was “loss of expression”. The “localization of HMGB1 (immunofluorescence)” value ([1]; 12.5 pg/ml for 48 hrs, normal EBs lacked signals) was “cytoplasmic localization; also recorded: localized in the cytoplasm”, the “Brachury expression on day 9.5” value ([1]; EBs exposed to 12.5 pg/ml for 48 hrs, tested on day 9.5) was “did not show a positive signal” and the “morphology (shape, size or numbers) of treated vs normal EBs” value [2] was “did not show any visible morphological differences”. The “concentration enough to cause alterations in the proliferation of hematopoietic precursor cells in culture” value [3] was 2 to 5 pg/mL.
